Source: the SangsterLogP compilation

Tests used:
[1] = method code SF-HPLC, from DOI: 10.1007/bf00269028, PMID: 6488439
[2] = method code SF, from DOI: 10.1016/s0045-6535(97)00338-x
[3] = method code SF-AS, from DOI: 10.1016/0378-5173(82)90004-7; details: pH 3.0
[4] = method code SF-AS, from DOI: 10.1002/1521-3838(200111)20:4<291::aid-qsar291>3.0.co;2-q
[5] = not given; remark: listed apart in the source
[6] = method code SF, from DOI: 10.1016/j.jiec.2010.03.003
[7] = not given; remark: listed apart in the source
[8] = method code SF-CR+AS, from DOI: 10.1016/s0003-2670(00)84151-3
[9] = not given; remark: listed apart in the source
[10] = method code SF-HPLC, from DOI: 10.1002/jps.2600750520, PMID: 3735094; details: pH 4.0
[11] = method code SF-RC, from DOI: 10.1021/jm901332c, PMID: 19921956; details: pH 7.4
[12] = method code SF, from DOI: 10.1021/jm00378a018, PMID: 6389865; details: pH 7.0
[13] = method code SF-GLC, from DOI: 10.1007/bf00343116, PMID: 4026577
[14] = method code SF-GLC, from Boikov, Yu.; Shibaev, V.; Gaidamaka, V.; V'yunov, K. (1989). Study of correlation between extraction characteristics of glycidyl ethers and theri structure. 62(1)177-179.
[15] = method code SF-GLC, from DOI: 10.1016/s0021-9673(01)83612-8; details: pH 13.0
[16] = method code SF-HPLC, from DOI: 10.1016/0378-5173(82)90005-9; details: pH 3.0
[17] = method code SF-RC, from DOI: 10.1002/ps.2780130506
[18] = method code SF-AS, from DOI: 10.1007/bf02922495
[19] = not given; remark: listed apart in the source
[20] = method code SF, from DOI: 10.1021/js9700917, PMID: 9452977; details: pH 5.5
[21] = not given; remark: listed apart in the source
[22] = not given; remark: listed apart in the source
[23] = method code SF-AS, from DOI: 10.1007/s001289900158, PMID: 8661463
[24] = method code SF-AS, from Ganga, L. X. J. S., & Zun-Yaob, L. H. W. (2009). Determination of lgKow and QSPR Study on Some Fluorobenzene Derivatives. Jiegou Huaxue, 28(10).
[25] = method code SF, from DOI: 10.1002/em.2850190108, PMID: 1732104
[26] = not given; remark: listed apart in the source

`Nc1ccn([C@@H]2O[C@@H]3CO[C@H]2[C@@H]3O)c(=O)n1` gave a logP [1] of -1.64.
Work on `CC(=O)c1ccc(F)cc1` yielded a logP [2] of 1.74.
Molecule `Fc1cccc(F)c1` has a logP of 2.33.
For `CCC1(C)C(=O)NC(=O)NC1=O`, the logD [3] was 0.08.
`Oc1ccccc1-c1n[nH]c(=S)o1` showed a logP [4] of 2.42.
Molecule `Clc1ccccc1` has a logP [5] of 2.73.
In the case of `CCC(C)(C)OC`, the logP [6] is reported as 1.81.
With `COc1c(Br)cc(Br)cc1Br` the logP [7] was 4.48.
With `OCc1ccccc1I` the logP was 2.43.
`NC(=S)c1ccc([N+](=O)[O-])cc1` showed a logP [8] of 1.75.
Molecule `Nc1cccc2cccnc12` has a logP [9] of 1.79.
Work on `COC(=O)n1cc(F)c(=O)[nH]c1=O` yielded a logD [10] of -0.68.
In the case of `COc1ccc(C(N)=S)cc1`, the logP [8] is reported as 1.63.
In the case of `O=C1NC(=O)C(c2ccccc2)(c2ccccc2)C(=O)N1`, the logD [3] is reported as 1.96.
For `Cn1cnc2ncnc(Br)c21`, the logD [11] was 0.2.
In the case of `Nc1nc(NCCO)c(Cl)nc1[N+](=O)[O-]`, the logD [12] is reported as 0.12.
In the case of `N#CCCCCCCCCC#N`, the logP [13] is reported as 1.75.
`CCCCOCC1CO1` (configuration not stated) gave a logP [14] of 0.55.
`CC(N)CC1CCCCC1` (configuration not stated) showed a logD [15] of 2.96.
`O=C1NC(=O)C2(CCCC2)C(=O)N1` showed a logD [16] of 0.24.
In the case of `NC(=O)Nc1ccc(Oc2ccc(Br)cc2)cc1`, the logP [17] is reported as 3.7.
With `Nc1c(F)cccc1F` the logP was 1.61.
In the case of `O=C1NC(=O)C2(CCCCC2)C(=O)N1`, the logD [16] is reported as 0.91.
Work on `O=[N+]([O-])c1nccnc1NCC(O)CO` (configuration not stated) yielded a logD [12] of -0.49.
For `COC(=O)/C(C#N)=C/c1ccco1`, the logP [18] was 1.75.
With `CN(C)C(=O)Nc1ccccc1` the logP [19] was 1.18.
In the case of `O=[N+]([O-])c1cnc(NC(CO)C(O)CO)cn1` (configuration not stated), the logD [12] is reported as -0.89.
`COP(=S)(OC)Oc1nc(Cl)c(Cl)cc1Cl` gave a logP [19] of 3.99.
`CC(=O)Nc1ccc(S(=O)(=O)Nc2nc(C)c(C)o2)cc1` showed a logD [20] of 0.46.
Work on `Nc1ccc(F)cc1` yielded a logP [2] of 1.18.
In the case of `CCS(=O)(=O)CCn1c([N+](=O)[O-])cnc1C`, the logP [21] is reported as -0.38.
Work on `COc1cccc(Cl)c1` yielded a logP [22] of 2.98.
`Clc1ccc(Cl)nn1` gave a logP [23] of 0.93.
`O=[N+]([O-])c1c(Cl)ncnc1Cl` gave a logP [23] of 0.45.
With `CNC(=O)ON=Cc1ccc(Cl)cc1` the logP [17] was 2.27.
`O=C1NC(=O)C2(CCCCCCCCCC2)C(=O)N1` showed a logD [16] of 3.15.
For `Cc1ccc(Cl)cc1O`, the logP [22] was 2.63.
`Nc1cc[nH]c(=O)n1` gave a logP [1] of -1.49.
Work on `CC1Cc2ccccc2CN1` (configuration not stated) yielded a logD [15] of 1.93.
Work on `CC(C)OCC1CO1` (configuration not stated) yielded a logP [14] of 0.8.
In the case of `COc1ccc(OC)cc1`, the logP [22] is reported as 2.03.
For `N#CCCCCC#N`, the logP [13] was -0.32.
Work on `OCc1ccccc1Br` yielded a logP of 2.08.
In the case of `Nc1ccc(Cl)cc1N`, the logP [9] is reported as 1.28.
With `COC(=O)C(C#N)=Cc1ccc(Cl)o1` the logP [18] was 2.4.
`Oc1ccc(F)cc1F` showed a logP [24] of 1.9.
For `O=[N+]([O-])c1ccc2c3c(cccc13)CC2`, the logP [25] was 3.85.
In the case of `Cc1ccc2cccc([N+](=O)[O-])c2n1`, the logP [25] is reported as 1.99.
For `Nc1ccc(F)c(F)c1F`, the logP [2] was 2.14.
Molecule `Fc1ccccc1F` has a logP [24] of 2.1.
Work on `CNC(=O)O/N=C/c1ccccc1` yielded a logP [17] of 1.49.
Work on `O=C1Nc2ccc([N+](=O)[O-])cc2C1=O` yielded a logP [25] of 0.47.
For `N#CCCC#N`, the logP [13] was -0.99.
`CCOC(=O)n1cc(F)c(=O)[nH]c1=O` showed a logD [10] of -0.17.
`CCCCCCCCCCCCN1CC(C(=O)OC)CC1=O` (configuration not stated) showed a logP [26] of 4.
`NC(=S)N/N=C/c1ccc([N+](=O)[O-])o1` showed a logP [21] of 1.64.
`CC(=O)Nc1ccc(S(=O)(=O)Nc2cc(C)nc(C)n2)cc1` gave a logD [20] of -0.14.
